Reference: the OligoGym collection
“And” between values parts separate entries of the source, which are not always exact repeats. Equal values may be shown once. HELM strings list units from the 5' end as sugar, base in round brackets, then linkage (d deoxyribose, r ribose, m 2'-O-methyl, p phosphodiester). Strings are as the collection lists them, not checked against the first reports. ss, as = sense and antisense strand; [lna] = locked nucleic acid (LNA); [hna] = hexitol nucleic acid; [s4r] = 4'-thioribose; [fl2r] = 2'-fluoro

Details: siRNA
Note: test system not given here.

Substance	target mRNA knockdown
RNA1{m(U)p.r(A)p.r(G)p.r(C)p.m(C)p.r(A)p.r(G)p.r(A)p.r(G)p.r(C)p.m(C)p.r(A)p.r(A)p.r(A)p.r(G)p.r(A)p.r(A)p.r(G)p.r(C)p.r(T)p.r(T)}|RNA2{r(G)p.r(C)p.r(U)p.r(U)p.r(C)p.r(U)p.r(U)p.r(U)p.r(G)p.m(G)p.r(C)p.r(U)p.r(C)p.r(U)p.r(G)p.m(G)p.m(C)p.m(U)p.r(A)p.r(T)p.r(T)}$$$RNA1{StrandType:ss}|RNA2{StrandType:as}$	85%
RNA1{r(A)p.r(G)p.r(C)p.r(C)p.r(U)p.r(C)p.r(C)p.r(A)p.r(A)p.[fl2r](A)p.r(C)p.r(U)p.r(C)p.r(C)p.r(U)p.r(A)p.r(G)p.[fl2r](C)p.r(U)p.r(T)p.r(T)}|RNA2{r(A)p.r(G)p.r(C)p.[fl2r](U)p.r(A)p.r(G)p.r(G)p.r(A)p.r(G)p.r(U)p.r(U)p.r(U)p.r(G)p.r(G)p.r(A)p.r(G)p.r(G)p.r(C)p.r(U)p.r(T)p.r(T)}$$$RNA1{StrandType:ss}|RNA2{StrandType:as}$	69%
RNA1{m(A)p.r(C)p.m(C)p.r(U)p.m(U)p.r(A)p.m(A)p.r(G)p.m(G)p.r(A)p.m(C)p.r(C)p.m(A)p.r(C)p.m(C)p.r(G)p.m(G)p.r(A)p.m(U)p.r(T)p.r(T)}|RNA2{r(A)p.r(U)p.r(C)p.m(C)p.r(G)p.r(G)p.r(U)p.r(G)p.r(G)p.r(U)p.r(C)p.r(C)p.m(U)p.r(U)p.m(A)p.r(A)p.m(G)p.r(G)p.m(U)p.r(T)p.r(T)}$$$RNA1{StrandType:ss}|RNA2{StrandType:as}$	52%
RNA1{[hna](G)p.[hna](A)p.[hna](C)p.r(G)p.r(U)p.r(A)p.r(A)p.r(A)p.r(C)p.r(G)p.r(G)p.r(C)p.r(C)p.r(A)p.r(C)p.r(A)p.r(A)p.[hna](G)p.[hna](U)p.[hna](U)p.d(T)}|RNA2{r(A)p.r(C)p.[hna](U)p.r(U)p.r(G)p.r(U)p.r(G)p.r(G)p.r(C)p.r(C)p.r(G)p.r(U)p.r(U)p.r(U)p.r(A)p.r(C)p.r(G)p.[hna](U)p.[hna](C)p.[hna](G)p.d(T)}$$$RNA1{StrandType:ss}|RNA2{StrandType:as}$	80.6%
RNA1{r(C)p.r(G)p.r(U)p.r(A)p.r(C)p.r(G)p.r(C)p.r(G)p.r(G)p.r(A)p.r(A)p.r(U)p.r(A)p.r(C)p.r(U)p.r(U)p.r(C)p.r(G)p.r(A)p.r(T)p.r(T)}|RNA2{r(U)p.r(C)p.r(G)p.r(A)p.r(A)p.r(G)p.[s4r](U)p.[s4r](A)p.[s4r](U)p.[s4r](U)p.[s4r](C)p.[s4r](C)p.[s4r](G)p.r(C)p.r(G)p.r(U)p.r(A)p.r(C)p.r(G)p.r(T)p.r(T)}$$$RNA1{StrandType:ss}|RNA2{StrandType:as}$	36.5%
RNA1{m(C)p.r(G)p.m(A)p.r(G)p.m(U)p.r(G)p.m(U)p.r(C)p.m(U)p.r(A)p.m(A)p.r(C)p.m(G)p.r(G)p.m(G)p.r(A)p.m(G)p.r(C)p.m(C)p.r(T)p.r(T)}|RNA2{r(G)p.r(G)p.r(C)p.r(U)p.r(C)p.r(C)p.r(C)p.r(G)p.r(U)p.r(U)p.r(A)p.r(G)p.r(A)p.r(C)p.r(A)p.r(C)p.r(U)p.r(C)p.r(G)p.r(T)p.r(T)}$$$RNA1{StrandType:ss}|RNA2{StrandType:as}$	25%
RNA1{r(C)p.r(U)p.r(U)p.r(A)p.r(C)p.r(G)p.r(C)p.r(U)p.r(G)p.r(A)p.r(G)p.r(U)p.r(A)p.r(C)p.r(U)p.r(U)p.r(C)p.r(G)p.r(A)p.r(T)p.r(T)}|RNA2{r(U)p.r(C)p.r(G)p.r(A)p.r(A)p.r(G)p.r(U)p.r(A)p.r(C)p.r(U)p.r(C)p.r(A)p.r(G)p.r(C)p.r(G)p.[lna](U)p.r(A)p.r(A)p.r(G)p.r(T)p.r(T)}$$$RNA1{StrandType:ss}|RNA2{StrandType:as}$	81%
RNA1{m(C)p.r(U)p.m(C)p.r(C)p.m(G)p.r(A)p.m(C)p.r(A)p.m(G)p.r(A)p.m(U)p.r(G)p.m(A)p.r(A)p.m(G)p.r(G)p.m(A)p.r(A)p.m(A)p.r(T)p.r(T)}|RNA2{r(U)p.r(U)p.r(U)p.r(C)p.r(C)p.r(U)p.r(U)p.r(C)p.m(A)p.r(U)p.r(C)p.r(U)p.r(G)p.r(U)p.r(C)p.r(G)p.r(G)p.m(A)p.r(G)p.r(T)p.r(T)}$$$RNA1{StrandType:ss}|RNA2{StrandType:as}$	46%
RNA1{r(A)p.r(C)p.r(A)p.r(U)p.r(A)p.r(G)p.r(A)p.r(G)p.r(G)p.r(A)p.r(A)p.r(G)p.r(A)p.r(C)p.r(G)p.r(C)p.r(G)p.r(G)p.r(A)p.r(T)p.r(T)}|RNA2{r(U)p.r(C)p.r(C)p.r(G)p.r(C)p.r(G)p.r(U)p.r(C)p.r(U)p.r(U)p.r(C)p.r(C)p.r(U)p.r(C)p.[fl2r](U)p.r(A)p.r(U)p.r(G)p.r(U)p.r(T)p.r(T)}$$$RNA1{StrandType:ss}|RNA2{StrandType:as}$	89%
RNA1{r(C)p.r(U)p.r(U)p.r(A)p.r(C)p.r(G)p.r(C)p.r(U)p.r(G)p.r(A)p.r(G)p.r(U)p.r(A)p.r(C)p.r(U)p.r(U)p.r(C)p.r(G)p.r(A)p.r(T)p.r(T)}|RNA2{r(T)p.r(C)p.[lna](G)p.r(A)p.r(A)p.r(G)p.r(U)p.r(A)p.r(C)p.r(U)p.r(C)p.r(A)p.r(G)p.r(C)p.r(G)p.r(U)p.r(A)p.r(A)p.r(G)p.[lna](T)p.[lna](T)}$$$RNA1{StrandType:ss}|RNA2{StrandType:as}$	90%
RNA1{r(U)p.r(C)p.r(C)p.r(U)p.r(A)p.r(C)p.r(A)p.r(G)p.r(C)p.r(A)p.r(C)p.r(A)p.r(A)p.r(C)p.r(A)p.r(A)p.r(A)p.r(U)p.r(G)p.d(U)p.d(G)}|RNA2{r(C)p.r(A)p.r(U)p.r(U)p.r(U)p.r(G)p.r(U)p.r(U)p.r(G)p.r(U)p.r(G)p.r(C)p.r(U)p.r(G)p.r(U)p.r(A)p.r(G)p.r(G)p.r(A)p.d(T)p.d(T)}$$$RNA1{StrandType:ss}|RNA2{StrandType:as}$	54%
RNA1{r(U)p.m(U)p.m(G)p.r(G)p.r(G)p.r(G)p.m(A)p.m(A)p.r(G)p.r(C)p.r(G)p.r(G)p.r(C)p.r(C)p.r(G)p.r(G)p.r(C)p.r(G)p.r(G)p.r(T)p.r(T)}|RNA2{r(C)p.r(C)p.r(G)p.r(C)p.r(C)p.r(G)p.r(G)p.r(C)p.r(C)p.r(G)p.r(C)p.r(U)p.r(U)p.r(C)p.r(C)p.r(C)p.m(C)p.r(A)p.r(A)p.r(T)p.r(T)}$$$RNA1{StrandType:ss}|RNA2{StrandType:as}$	78%
RNA1{[fl2r](A)p.r(U)p.r(C)p.[fl2r](G)p.[fl2r](A)p.r(C)p.r(C)p.r(U)p.[fl2r](G)p.[fl2r](A)p.[fl2r](A)p.[fl2r](G)p.[fl2r](G)p.[fl2r](A)p.[fl2r](G)p.r(U)p.[fl2r](A)p.r(C)p.[fl2r](G)p.r(T)p.r(T)}|RNA2{r(C)p.[fl2r](G)p.r(U)p.[fl2r](A)p.r(C)p.r(U)p.r(C)p.r(C)p.r(U)p.r(U)p.r(C)p.[fl2r](A)p.[fl2r](G)p.[fl2r](G)p.r(U)p.r(C)p.[fl2r](G)p.[fl2r](A)p.r(U)p.r(T)p.r(T)}$$$RNA1{StrandType:ss}|RNA2{StrandType:as}$	21%
RNA1{r(A)p.r(G)p.r(U)p.[fl2r](U)p.r(A)p.r(A)p.r(C)p.r(C)p.r(C)p.r(G)p.r(G)p.r(G)p.r(A)p.r(C)p.r(U)p.[fl2r](U)p.r(G)p.r(G)p.r(A)p.r(T)p.r(T)}|RNA2{r(U)p.r(C)p.[fl2r](C)p.r(A)p.r(A)p.r(G)p.r(U)p.r(C)p.r(C)p.r(C)p.r(G)p.r(G)p.r(G)p.r(U)p.[fl2r](U)p.r(A)p.r(A)p.r(C)p.r(U)p.r(T)p.r(T)}$$$RNA1{StrandType:ss}|RNA2{StrandType:as}$	85% and 86%
RNA1{r(C)p.r(U)p.r(C)p.r(C)p.r(U)p.r(U)p.m(C)p.r(A)p.r(U)p.r(U)p.r(C)p.m(C)p.r(A)p.r(G)p.r(C)p.r(C)p.m(U)p.r(A)p.r(U)p.r(T)p.r(T)}|RNA2{r(A)p.m(U)p.r(A)p.r(G)p.r(G)p.r(C)p.m(U)p.r(G)p.r(G)p.r(A)p.r(A)p.m(U)p.r(G)p.r(A)p.r(A)p.r(G)p.r(G)p.r(A)p.r(G)p.r(T)p.r(T)}$$$RNA1{StrandType:ss}|RNA2{StrandType:as}$	78%
RNA1{r(G)p.r(A)p.r(A)p.r(G)p.r(A)p.r(G)p.r(U)p.m(U)p.r(A)p.r(A)p.r(C)p.r(C)p.r(C)p.r(G)p.r(G)p.r(G)p.r(A)p.r(C)p.r(U)p.r(T)p.r(T)}|RNA2{r(A)p.r(G)p.r(U)p.r(C)p.r(C)p.r(C)p.r(G)p.r(G)p.r(G)p.r(U)p.m(U)p.r(A)p.r(A)p.r(C)p.r(U)p.r(C)p.r(U)p.r(U)p.r(C)p.r(T)p.r(T)}$$$RNA1{StrandType:ss}|RNA2{StrandType:as}$	51%
RNA1{r(G)p.r(A)p.r(C)p.r(G)p.[hna](U)p.r(A)p.r(A)p.[hna](A)p.r(C)p.r(G)p.[hna](G)p.r(C)p.r(C)p.[hna](A)p.r(C)p.r(A)p.r(A)p.r(G)p.r(U)p.[hna](U)p.d(T)}|RNA2{r(A)p.r(C)p.r(U)p.r(U)p.r(G)p.r(U)p.r(G)p.r(G)p.r(C)p.r(C)p.r(G)p.r(U)p.r(U)p.r(U)p.r(A)p.r(C)p.r(G)p.[hna](U)p.[hna](C)p.[hna](G)p.d(T)}$$$RNA1{StrandType:ss}|RNA2{StrandType:as}$	48.7%
RNA1{r(U)p.r(C)p.r(C)p.r(C)p.r(U)p.r(U)p.r(C)p.m(C)p.r(A)p.r(C)p.r(C)p.r(G)p.r(C)p.m(C)p.r(A)p.m(U)p.r(A)p.r(U)p.r(U)p.r(T)p.r(T)}|RNA2{r(A)p.r(A)p.m(U)p.r(A)p.m(U)p.r(G)p.r(G)p.r(C)p.r(G)p.r(G)p.m(U)p.r(G)p.r(G)p.r(A)p.r(A)p.r(G)p.r(G)p.r(G)p.r(A)p.r(T)p.r(T)}$$$RNA1{StrandType:ss}|RNA2{StrandType:as}$	47%
RNA1{r(A)p.r(A)p.r(A)p.r(C)p.r(G)p.r(A)p.m(G)p.r(A)p.r(G)p.r(A)p.r(G)p.r(C)p.r(C)p.m(C)p.r(A)p.r(C)p.r(C)p.r(U)p.r(U)p.r(T)p.r(T)}|RNA2{r(A)p.r(A)p.r(G)p.r(G)p.m(U)p.m(G)p.r(G)p.r(G)p.r(C)p.r(U)p.r(C)p.r(U)p.r(C)p.r(U)p.r(C)p.r(G)p.r(U)p.r(U)p.r(U)p.r(T)p.r(T)}$$$RNA1{StrandType:ss}|RNA2{StrandType:as}$	56%
RNA1{r(G)p.r(A)p.r(G)p.r(G)p.r(A)p.r(U)p.r(G)p.r(G)p.r(A)p.r(U)p.r(U)p.r(C)p.r(G)p.r(A)p.r(C)p.r(U)p.r(U)p.r(A)p.r(G)p.r(T)p.r(T)}|RNA2{r(C)p.m(U)p.r(A)p.r(A)p.r(G)p.r(U)p.r(C)p.r(G)p.r(A)p.r(A)p.r(U)p.r(C)p.r(C)p.r(A)p.r(U)p.r(C)p.r(C)p.r(U)p.r(C)p.r(T)p.r(T)}$$$RNA1{StrandType:ss}|RNA2{StrandType:as}$	94%
